Read-outs that look alike come from different tables or passages of the source.
How the values were obtained:
[1] = Log P by HPLC on reversed phase columns (EEC directive 79/831 Annex V.A8; methods [a], [b], [c]); type: physicochemical; details: method [a]
Outline: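 Reversed-phase HPLC with LC-UV detection, 10→95% acetonitrile linear gradient; aqueous eluent 0.1% formic acid [a], 0.001 M ammonium acetate, neutral [b], or 0.1% phosphoric acid [c]. Calibrated against C3–C16 alkan-2-ones of known Log P by retention-time linear interpolation; multiple values within a method separated by "+".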

Uromyces appendiculatus = test: Example E: in vivo preventive test on Uromyces appendiculatus (bean rust); details: 264 h, read-out: efficacy
Procedure: Example E: In Vivo Preventive Test on Uromyces Appendiculatus (Bean Rust)
(§1) The active ingredients were made soluble and homogenized in a mixture of Dimethyl sulfoxide/Acetone/Tween® 80 and then diluted in water to the desired concentration.
The young plants of bean were treated by spraying the active ingredient prepared as described above. Control plants were treated only with an aqueous solution of Acetone/Dimethyl sulfoxide/Tween® 80.
After 24 hours, the plants were contaminated by spraying the leaves with an aqueous suspension of Uromyces appendiculatus spores. The contaminated bean plants were incubated for 24 hours at 20° C. and at 100% relative humidity and then for 10 days at 20° C. and at 70-80% relative humidity.
(§2) The test was evaluated 11 days after the inoculation. 0% means an efficacy which corresponds to that of the control plants while an efficacy of 100% means that no disease was observed.

Septoria tritici = test: Example C: in vivo preventive test on Septoria tritici (leaf spot on wheat); details: Zymoseptoria tritici, 576 h, read-out: efficacy
Procedure: Example C: In Vivo Preventive Test on Septoria Tritici (Leaf Spot on Wheat)
as §1
(§3) The young plants of wheat were treated by spraying the active ingredient prepared as described above. Control plants were treated only with an aqueous solution of Acetone/Dimethyl sulfoxide/Tween® 80.
After 24 hours, the plants were contaminated by spraying the leaves with an aqueous suspension of Septoria tritici spores. The contaminated wheat plants were incubated for 72 hours at 18° C. and at 100% relative humidity and then for 21 days at 20° C. and at 90% relative humidity.
The test was evaluated 24 days after the inoculation. 0% means an efficacy which corresponds to that of the control plants while an efficacy of 100% means that no disease was observed.

Puccinia recondita = test: Example B: in vivo preventive test on Puccinia recondita (brown rust on wheat); details: 264 h, read-out: efficacy
Procedure: Example B: In Vivo Preventive Test on Puccinia Recondita (Brown Rust on Wheat)
as §1, §3
After 24 hours, the plants were contaminated by spraying the leaves with an aqueous suspension of Puccinia recondita spores. The contaminated wheat plants were incubated for 24 hours at 20° C. and at 100% relative humidity and then for 10 days at 20° C. and at 70-80% relative humidity.
as §2

Sphaerotheca fuliginea = test: Example D: in vivo preventive test on Sphaerotheca fuliginea (powdery mildew on cucurbits); details: Podosphaera fuliginea, 360 h, read-out: efficacy
Procedure: Example D: In Vivo Preventive Test on Sphaerotheca Fuliginea (Powdery Mildew on Cucurbits)
as §1
The young plants of gherkin were treated by spraying the active ingredient prepared as described above. Control plants were treated only with an aqueous solution of Acetone/Dimethyl sulfoxide/Tween® 80.
After 24 hours, the plants were contaminated by spraying the leaves with an aqueous suspension of Sphaerotheca fuliginea spores. The contaminated gherkin plants were incubated for 72 hours at 18° C. and at 100% relative humidity and then for 12 days at 20° C. and at 70-80% relative humidity.
The test was evaluated 15 days after the inoculation. 0% means an efficacy which corresponds to that of the control plants while an efficacy of 100% means that no disease was observed.

[2] = reversed phase HPLC column, HPLC on reversed phase columns
[3] = 500 ppm of active ingredient, bean plants, preventive spray, evaluated 11 days after inoculation
[4] = 500 ppm of active ingredient, wheat plants, preventive spray, evaluated 24 days after inoculation
[5] = 500 ppm of active ingredient, wheat plants, preventive spray, evaluated 11 days after inoculation
[6] = 500 ppm of active ingredient, gherkin plants, preventive spray, evaluated 15 days after inoculation

Structure (SMILES) | chromatographic logP [1, 2] | pest or weed control at 500 ppm (Uromyces appendiculatus; [3]) [%] | pest or weed control at 500 ppm (Septoria tritici; [4]) [%] | pest or weed control at 500 ppm (Puccinia recondita; [5]) [%] | pest or weed control at 500 ppm (Sphaerotheca fuliginea; [6]) [%] | pest or weed control at 500 ppm (Uromyces appendiculatus) [%] | pest or weed control at 500 ppm (Septoria tritici) [%] | pest or weed control at 500 ppm (Puccinia recondita) [%] | pest or weed control at 500 ppm (Sphaerotheca fuliginea) [%] | chromatographic logP ([1]; HPLC on reversed phase columns) | chromatographic logP ([1]; HPLC on reversed phase column)
C=CC(C)C(O)(Cn1cncc1C#N)C1(Cl)CC1 (stereo not shown) [I-311, 1-[2-(1-chlorocyclopropyl)-2-hydroxy-3-methylpent-4-en-1-yl]-1H-imidazole-5-carbonitrile] | 2.21 | 90 to 100 | 90 to 100 | 80 to 89 | 90 to 100 | – | – | – | – | – | –
N#Cc1cncn1CC(O)(c1ccc(-c2ccc(Cl)cc2)cc1Cl)C1(F)CC1 (stereo not shown) [I-393, 3-[2-[2-chloro-4-(4-chlorophenyl)phenyl]-2-(1-fluorocyclopropyl)-2-hydroxy-ethyl]imidazole-4-carbonitrile] | 3.64 | – | – | – | – | 90 to 100 | 80 to 89 | 90 to 100 | 90 to 100 | – | –
C#Cc1ccc(C(O)(Cn2cncc2C#N)C2(F)CC2)c(Cl)c1 (stereo not shown) [I-395, 3-[2-(2-chloro-4-ethynyl-phenyl)-2-(1-fluorocyclopropyl)-2-hydroxy-ethyl]imidazole-4-carbonitrile] | – | – | – | – | – | 90 to 100 | 90 to 100 | 80 to 89 | 90 to 100 | 2.39 | –
NC(=S)c1cncn1CC(O)(c1ccc(Br)cc1Cl)C1(F)CC1 (stereo not shown) [I-432, 3-[2-(4-bromo-2-chloro-phenyl)-2-(1-fluorocyclopropyl)-2-hydroxy-ethyl]imidazole-4-carbothioamide] | 1.75 | 90 to 100 | 90 to 100 | 90 to 100 | 90 to 100 | – | – | – | – | – | –
C#CCOc1ccc(C(O)(Cn2cncc2C#N)C2(F)CC2)c(F)c1 (stereo not shown) [I-506, 3-[2-(1-fluorocyclopropyl)-2-(2-fluoro-4-prop-2-ynoxy-phenyl)-2-hydroxy-ethyl]imidazole-4-carbonitrile] | – | – | – | – | – | 80 to 89 | 90 to 100 | 80 to 89 | 90 to 100 | – | 2.23

— patent US20200031778A1, “NOVEL 5-SUBSTITUTED IMIDAZOLYLMETHYL DERIVATIVES” (Bayer CropScience Aktiengesellschaft, priority 2016, published 2020)
